From ChEMBL document CHEMBL1201862, “PubChem BioAssay data set” (2004)
Values joined by “and” are separate entries in the source; they are usually repeats but may differ in a detail not shown here. Equal entries are not always repeated. Active and inactive are the calls of the source.

Assays:
[1] = THP-1 cell cytotoxicity, dose response, cytotoxicity control for Vif-APOBEC3G degradation inhibitor project, THP-1 cells (AID 1117359); assay type: functional; details: Human immunodeficiency virus 1, THP-1
[2] = molecular target: Nonstructural protein 1 (Influenza A virus, UniProt Q194T2); assay type: functional, Influenza A virus (A/California/07/2009(H1N1))
Nonstructural protein 1, sequence (Q194T2 whole entry): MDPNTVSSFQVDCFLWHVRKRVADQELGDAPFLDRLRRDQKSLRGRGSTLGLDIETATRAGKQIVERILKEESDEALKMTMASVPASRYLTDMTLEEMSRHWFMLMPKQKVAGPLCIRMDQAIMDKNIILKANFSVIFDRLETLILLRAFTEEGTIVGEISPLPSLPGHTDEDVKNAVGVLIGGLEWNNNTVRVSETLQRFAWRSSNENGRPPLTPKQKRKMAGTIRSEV

[3] = Luminescence Cell-Based Dose Response HTS to Identify Activators of Luciferase Translation or Activity in H4 […] Cells. [Related pubchem assays: 1829 (Project Summary), 1814 (Primary HTS)]; assay type: functional
[4] = tested on: Streptococcus sp. 'group A'; experiment: growth inhibition of control SK(-) GAS strain, dose response, counter-screen for streptokinase expression inhibitor project, luminescence, kanamycin, BacTiterGlo, confirmation (AID 1900); assay type: functional, organism-based
[5] = tested on: H4; experiment: Luminescence Cell-Based Dose Response HTS to Identify Activators of 5'UTR Stem-Loop Driven Prion Protein mRNA Translation in H4 Neuroglioblastoma Cells. [Related pubchem assays: 1829 (Project Summary), 1814 (Primary HTS)]; assay type: functional; details: Homo sapiens
[6] = molecular target: T1, Streptokinase A (Streptococcus pyogenes serotype M1, UniProt P10520); experiment: S. pyogenes streptokinase expression inhibitors, potency, dose response, plasminogen activation absorbance, OD405 (AID 1914); assay type: functional, Streptococcus pyogenes M1 GAS;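 note: secreted streptokinase activity via plasminogen activation per viability signal from cell pellet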
T1 sequence (P10520 whole entry): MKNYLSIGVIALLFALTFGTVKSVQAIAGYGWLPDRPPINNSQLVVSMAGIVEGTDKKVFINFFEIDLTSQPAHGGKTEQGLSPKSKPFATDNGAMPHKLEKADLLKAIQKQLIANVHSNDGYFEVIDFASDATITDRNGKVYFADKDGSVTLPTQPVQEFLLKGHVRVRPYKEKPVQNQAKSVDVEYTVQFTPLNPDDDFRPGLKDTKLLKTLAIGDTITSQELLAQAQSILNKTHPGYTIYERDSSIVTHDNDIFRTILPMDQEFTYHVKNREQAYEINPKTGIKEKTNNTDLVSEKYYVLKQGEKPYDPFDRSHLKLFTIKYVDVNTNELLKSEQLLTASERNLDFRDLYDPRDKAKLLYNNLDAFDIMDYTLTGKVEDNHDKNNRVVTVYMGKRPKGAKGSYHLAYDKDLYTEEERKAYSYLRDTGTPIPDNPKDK

[7] = inhibitors of intracellular T. cruzi replication, confirmation, NIH3T3 host cells, beta-gal luminescence (AID 2044); assay type: functional, cell-based;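 note: intracellular parasites grown in NIH/3T3 mouse fibroblasts as host cells; luminescent beta-galactosidase reporter signal from transgenic T. cruzi replicating inside host cells; inhibitors lower the luminescence signal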
[8] = cytotoxicity toward NIH3T3 fibroblasts, dose response, counter-screen, cell-based, ATP luminescence, mouse fibroblasts (AID 2010); assay type: functional;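 note: cells exposed to compound for about 90 hours before reading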
[9] = tested on: Streptococcus; experiment: Group A Streptococcus viability loss, dose response, counter-screen for streptokinase expression inhibitor project, luminescence, BacTiterGlo (AID 1915); assay type: functional, organism-based;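 note: potency for reduction of bacterial viability or growth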
[10] = molecular target: T2, Leucine aminopeptidase (Plasmodium falciparum 3D7, UniProt Q8IL11); experiment: P. falciparum M17LAP inhibitors, primary screen, biochemical, fluorogenic H-Leu-NHMec substrate, 1536-well (AID 1619); assay type: functional
T2 sequence (Q8IL11 whole entry): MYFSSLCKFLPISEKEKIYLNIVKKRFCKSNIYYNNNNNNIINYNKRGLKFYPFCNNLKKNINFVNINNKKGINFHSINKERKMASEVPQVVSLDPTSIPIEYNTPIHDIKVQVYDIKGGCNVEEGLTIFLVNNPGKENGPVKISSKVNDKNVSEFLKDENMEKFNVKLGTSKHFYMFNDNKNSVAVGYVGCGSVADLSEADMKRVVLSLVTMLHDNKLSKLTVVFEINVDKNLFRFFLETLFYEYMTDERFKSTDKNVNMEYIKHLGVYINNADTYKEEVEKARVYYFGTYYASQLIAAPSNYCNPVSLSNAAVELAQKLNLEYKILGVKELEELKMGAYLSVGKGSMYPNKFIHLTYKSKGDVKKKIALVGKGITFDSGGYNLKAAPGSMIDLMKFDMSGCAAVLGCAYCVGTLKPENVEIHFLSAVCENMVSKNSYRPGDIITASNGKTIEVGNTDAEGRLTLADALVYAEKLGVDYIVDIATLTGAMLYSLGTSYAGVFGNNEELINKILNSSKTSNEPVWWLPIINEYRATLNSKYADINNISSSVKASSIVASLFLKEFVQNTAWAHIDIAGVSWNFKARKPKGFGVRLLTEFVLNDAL

[11] = molecular target: T3, Ubiquitin-conjugating enzyme E2 N (Homo sapiens, UniProt P61088); assay type: functional;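 note: Dose-response confirmation in a TR-FRET assay detecting UBC13-driven polyubiquitin chain formation, inhibition measured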
T3 sequence (P61088 whole entry): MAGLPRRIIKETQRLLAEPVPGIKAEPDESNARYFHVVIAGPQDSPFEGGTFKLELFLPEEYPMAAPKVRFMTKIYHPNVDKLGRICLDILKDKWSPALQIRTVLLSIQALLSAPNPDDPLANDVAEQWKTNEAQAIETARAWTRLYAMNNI

[12] = molecular target: T4, Cytochrome P450 1A2 (Homo sapiens, UniProt P05177);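 note: PubChem cytochrome P450 panel assay, CYP1A2 panel member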
T4 sequence (P05177 whole entry): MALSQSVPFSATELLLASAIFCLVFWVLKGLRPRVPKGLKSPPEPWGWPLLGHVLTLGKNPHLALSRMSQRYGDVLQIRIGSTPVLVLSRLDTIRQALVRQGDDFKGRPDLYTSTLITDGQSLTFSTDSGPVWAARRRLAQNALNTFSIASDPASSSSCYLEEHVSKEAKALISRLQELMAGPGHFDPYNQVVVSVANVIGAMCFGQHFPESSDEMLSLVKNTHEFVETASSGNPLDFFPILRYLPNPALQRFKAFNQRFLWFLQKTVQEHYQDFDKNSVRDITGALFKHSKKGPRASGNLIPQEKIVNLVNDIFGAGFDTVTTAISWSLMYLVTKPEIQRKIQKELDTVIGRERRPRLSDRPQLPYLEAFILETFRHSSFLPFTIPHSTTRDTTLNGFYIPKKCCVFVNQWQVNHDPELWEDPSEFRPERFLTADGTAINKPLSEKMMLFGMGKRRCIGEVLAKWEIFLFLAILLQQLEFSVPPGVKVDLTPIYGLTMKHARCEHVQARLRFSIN

[13] = molecular target: Cytochrome P450 2C9 (Homo sapiens, UniProt P11712)
Cytochrome P450 2C9, sequence (P11712 whole entry): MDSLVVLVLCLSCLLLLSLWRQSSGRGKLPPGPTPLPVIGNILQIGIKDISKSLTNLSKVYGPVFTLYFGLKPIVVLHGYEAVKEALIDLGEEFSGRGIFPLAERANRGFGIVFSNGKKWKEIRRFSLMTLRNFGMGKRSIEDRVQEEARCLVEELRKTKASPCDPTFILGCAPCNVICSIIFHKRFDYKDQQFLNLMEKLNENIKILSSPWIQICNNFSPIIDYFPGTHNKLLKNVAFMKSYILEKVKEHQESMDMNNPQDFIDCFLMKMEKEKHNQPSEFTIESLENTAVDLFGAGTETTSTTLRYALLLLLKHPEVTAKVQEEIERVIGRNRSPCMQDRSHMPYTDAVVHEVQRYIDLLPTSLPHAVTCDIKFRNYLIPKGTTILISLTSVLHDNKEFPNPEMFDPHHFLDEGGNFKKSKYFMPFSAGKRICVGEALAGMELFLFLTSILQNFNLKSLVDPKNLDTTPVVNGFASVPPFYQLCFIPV

[14] = inhibitors of firefly luciferase expression or activity, dose response, H4 neuroglioma cells, luminescence (AID 1990); assay type: functional, cell-based
[15] = tested on: BJ; experiment: cytotoxicity toward BJ-TERT fibroblasts, dose response, cell-based, RAS-independent, luminescence (AID 1933); assay type: functional; details: Homo sapiens
[16] = Luminescence Cell-Based Dose Response HTS to Identify Inhibitors of 5'UTR Stem-Loop Driven Prion Protein mRNA Translation in H4 Neuroglioblastoma Cells. [Related pubchem assays: 1827 (Project Summary), 1813 (Primary HTS)]; assay type: functional
[17] = inhibitors of SNCA 5'UTR-driven reporter translation, confirmation, H4 neuroglioma cells, luminescence (AID 1988); assay type: functional, cell-based
[18] = tested on: BJ; experiment: cells; assay type: functional, cell-based; details: Homo sapiens
[19] = growth suppression of PTEN-null colon cells, dose response, cell-based, HCT116 PTEN knockout (AID 1047); assay type: functional;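 note: HCT116 colon tumor cells with PTEN knocked out; cells exposed to compound for 60 hours before readout; potency for loss of cell viability measured by luminescence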
[20] = growth suppression of beta-catenin-knockout colon cells, dose response, cell-based, HCT116, human colon tumor (AID 1045); assay type: functional;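 note: HCT116 colon tumor cells with beta catenin knocked out; cells exposed to compound for 60 hours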
[21] = tested on: BJ; experiment: cytotoxicity toward BJ-TERT-LT-ST fibroblasts, dose response, cell-based, RAS-independent, luminescence (AID 1935); assay type: functional; details: Homo sapiens;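 note: BJ fibroblasts immortalized with TERT plus LT and ST oncogenes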
[22] = cytotoxicity toward DRD oncogenic fibroblasts, dose response, cell-based, non-viral oncogenic, luminescence (AID 1934); assay type: functional; details: Homo sapiens
[23] = molecular target: T5, Replicative DNA helicase DnaB (Mycobacterium tuberculosis, UniProt P9WMR3); experiment: DnaB intein splicing inhibitors, dose response, biochemical, cell-free fluorescence (AID 449749); assay type: functional
T5 sequence (P9WMR3 whole entry): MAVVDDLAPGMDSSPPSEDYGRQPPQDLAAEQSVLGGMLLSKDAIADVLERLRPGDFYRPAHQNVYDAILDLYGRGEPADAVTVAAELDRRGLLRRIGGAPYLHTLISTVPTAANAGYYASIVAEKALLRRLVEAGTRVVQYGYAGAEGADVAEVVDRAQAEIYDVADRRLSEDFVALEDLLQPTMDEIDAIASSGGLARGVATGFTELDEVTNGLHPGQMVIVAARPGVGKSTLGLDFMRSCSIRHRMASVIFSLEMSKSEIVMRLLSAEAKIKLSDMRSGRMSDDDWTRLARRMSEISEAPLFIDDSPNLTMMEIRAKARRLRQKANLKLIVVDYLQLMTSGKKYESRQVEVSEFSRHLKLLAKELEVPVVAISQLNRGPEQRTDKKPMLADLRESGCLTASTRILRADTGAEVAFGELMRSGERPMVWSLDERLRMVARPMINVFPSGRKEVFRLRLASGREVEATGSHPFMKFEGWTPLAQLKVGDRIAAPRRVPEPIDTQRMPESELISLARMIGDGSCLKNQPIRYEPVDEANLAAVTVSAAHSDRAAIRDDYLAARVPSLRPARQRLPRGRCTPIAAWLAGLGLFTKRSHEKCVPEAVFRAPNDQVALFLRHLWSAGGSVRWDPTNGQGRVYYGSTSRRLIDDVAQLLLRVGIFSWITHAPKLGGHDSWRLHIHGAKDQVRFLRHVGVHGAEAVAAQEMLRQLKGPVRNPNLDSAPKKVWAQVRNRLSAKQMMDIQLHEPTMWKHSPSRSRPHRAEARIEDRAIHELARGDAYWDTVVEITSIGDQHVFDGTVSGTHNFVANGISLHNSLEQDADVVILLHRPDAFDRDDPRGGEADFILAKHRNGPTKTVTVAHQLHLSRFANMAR

[24] = molecular target: T6, Protein RecA (Mycobacterium tuberculosis, UniProt P9WHJ3); experiment: Fluorescence Cell-Free Homogeneous Dose Retest to Identify Inhibitors of RecA-Intein Splicing Activity. [Related pubchem assays (depositor defined):AID2097, AID2223, AID489010, AID492950]; assay type: functional
T6 sequence (P9WHJ3 whole entry): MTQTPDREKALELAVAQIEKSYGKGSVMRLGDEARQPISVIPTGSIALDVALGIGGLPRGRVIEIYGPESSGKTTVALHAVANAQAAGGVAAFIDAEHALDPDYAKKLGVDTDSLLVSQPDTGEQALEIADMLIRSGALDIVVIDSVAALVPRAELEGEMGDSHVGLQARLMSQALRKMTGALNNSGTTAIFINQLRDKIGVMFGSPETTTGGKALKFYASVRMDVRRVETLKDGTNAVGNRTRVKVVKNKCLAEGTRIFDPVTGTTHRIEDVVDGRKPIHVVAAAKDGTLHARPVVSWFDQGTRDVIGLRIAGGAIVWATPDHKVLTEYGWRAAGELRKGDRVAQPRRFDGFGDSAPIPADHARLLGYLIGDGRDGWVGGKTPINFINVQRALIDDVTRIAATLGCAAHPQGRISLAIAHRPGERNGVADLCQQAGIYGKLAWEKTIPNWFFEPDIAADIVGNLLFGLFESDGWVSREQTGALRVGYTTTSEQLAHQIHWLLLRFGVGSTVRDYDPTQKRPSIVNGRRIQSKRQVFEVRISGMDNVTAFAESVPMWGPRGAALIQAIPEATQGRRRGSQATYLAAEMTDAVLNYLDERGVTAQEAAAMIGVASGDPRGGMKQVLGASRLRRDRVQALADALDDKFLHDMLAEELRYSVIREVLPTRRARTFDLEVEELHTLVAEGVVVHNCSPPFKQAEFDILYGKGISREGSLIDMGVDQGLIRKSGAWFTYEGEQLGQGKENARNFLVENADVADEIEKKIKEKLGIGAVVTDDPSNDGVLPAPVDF

COc1ccc2nc(N3CCN(C(=O)c4ccc5ncsc5c4)CC3)sc2c1
CC50 [1]: > 40 µM (active)

CN(CC(=O)O)Cc1nc2ccccc2[nH]1
IC50 [2]: 11.6 µM (active)

Nc1nc(-c2ccccn2)nc(N)c1Cc1ccccc1F
EC50 [3]: 5.85 µM (active) | EC50 [4]: 11 µM (active) | EC50 [5]: 0.414 µM (active) | EC50 [6]: > 150 µM (not active) | EC50 [7]: 2.52 µM (active) | EC50 [8]: > 60 µM (not active) | EC50 [9]: > 150 µM (not active) | IC50 [2]: 6.51 µM (active)

Nc1n[nH]c(SCC(=O)Nc2ccc3c(c2)CCC3)n1
IC50 [10]: 45.2 µM (active)

Cc1ccc(C(=O)/C=C/c2cc(C#N)n(C)c2C)cc1
CC50 [1]: > 40 µM (active)

COc1ccccc1N1CCN(C(=O)c2ccoc2C)CC1
CC50 [1]: > 40 µM (active)

COc1ccccc1NC(=O)c1c(/N=C/c2cccc([N+](=O)[O-])c2)cnn1C
IC50 [11]: > 20 µM (inactive)

O=C(c1ccco1)N1CCN(C(=O)c2cn(-c3ccccc3)nc2-c2ccccc2)CC1
CC50 [1]: 32.8 µM (active)

Cc1cc(NC(=O)CCN2C(=O)C3C4CCC(C4)C3C2=O)c(C)cc1Br (configuration not stated)
IC50 [10]: 13.7 µM (active) | AC50 [12]: 15.8 µM (inconclusive) | AC50 [13]: inconclusive

O=C(c1ccco1)N1CCN(C(=O)c2[nH]ncc2[N+](=O)[O-])CC1
IC50 [10]: 2.22 µM (active)

Cc1ccc(NC(=O)CSc2nc3ccccc3c(=O)n2CCCC(=O)NCCCN2CCOCC2)cc1C
IC50 [11]: > 20 µM (inactive)

COc1cc(/C=C(/C#N)c2nc3ccccc3[nH]2)ccc1OCC(=O)Nc1ccccc1C(C)C
EC50 [14]: 1.4 µM (active) | EC50 [15]: 2.97 µM (active) | EC50 [16]: 3.34 µM (active) | EC50 [17]: 0.56 µM (active) | EC50 [18]: 3.15 µM (active) | EC50 [19]: 19.6 µM (active) | EC50 [20]: 3.91 µM (active) | EC50 [21]: 5.76 µM (inconclusive) | EC50 [22]: 2.81 µM (active)

O=C(Cc1cc(O)n[nH]1)N/N=C/C(Cl)=C/c1ccccc1
IC50 [10]: 90.6 µM (active) | AC50 [23]: 1.95 µM (active) and 2.24 µM (active) | EC50 [24]: 1.02 µM (active) and 2.32 µM (active)

Cc1cccc(N(C(=O)c2snc(C(N)=O)c2N)C(C(=O)NC2CCCC2)c2ccco2)c1 (configuration not stated)
IC50 [11]: > 20 µM (inactive)

CCC(=O)NC(c1cc(Cl)c2ccccc2c1O)C(C)C (configuration not stated)
IC50 [11]: > 20 µM (inactive)

CCN1CCN(Cc2ccc(NC(=O)c3cc(NC(=O)c4cc(-c5ccc(OC)cc5)n[nH]4)cc(OC)c3)cc2C(F)(F)F)CC1
EC50 [6]: > 150 µM (not active) | IC50 [11]: > 20 µM (inactive)

CC1CCN(C(=O)c2ccc3c(c2NCCO)C(=O)c2ccccc2C3=O)CC1
IC50 [2]: 24.5 µM (active)
